One molecule from patent publication US9770421B2, “Uses for idebenone and related benzoquinones in metabolic disorders and other PPAR α/γ related diseases and conditions” (INDANIO BIOSCIENCE INC., priority 2013, dated 2017) can be followed below.

Entries after “also recorded” stand apart in the source; their conditions may differ.

Assay [1] has as its target T1, PPARδ/β (Homo sapiens, UniProt Q03181).
T1 construct: expressed in transfected cells; host or cells: transgenic zebrafish embryos (ligand-trap line)
T1 sequence (Q03181 211-439 limits assumed): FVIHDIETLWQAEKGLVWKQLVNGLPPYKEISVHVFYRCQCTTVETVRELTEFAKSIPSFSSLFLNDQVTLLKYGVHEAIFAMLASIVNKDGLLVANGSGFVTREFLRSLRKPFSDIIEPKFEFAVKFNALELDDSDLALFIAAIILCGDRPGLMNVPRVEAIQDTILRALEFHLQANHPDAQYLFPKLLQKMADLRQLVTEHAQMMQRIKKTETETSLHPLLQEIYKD
The experiment in a line: PPARδ/β ligand trap transgenic zebrafish line. The conditions noted are these: in vivo. Here is the method:
To test for specificity, idebenone and CoQ10 were also tested on PPARα, and PPARδ/β receptors in vivo and in vitro. […] The same relative responses were obtained with HEK 293 cells grown in culture and transfected with PPAR expression vectors and luciferase reporters (FIG. 5).

Assay [2] addresses T2, human PPARγ LBD (residues 206-477) (Homo sapiens, UniProt P37231).
T2 construct: human PPARγ LBD (residues 206-477), expressed in pRSET; His tag (implied by Ni-NTA purification and the pRSET vector); made in house; host or cells: E. coli BL21 codon plus (pRSET)
T2 sequence (P37231 206-477 isoform P37231-2): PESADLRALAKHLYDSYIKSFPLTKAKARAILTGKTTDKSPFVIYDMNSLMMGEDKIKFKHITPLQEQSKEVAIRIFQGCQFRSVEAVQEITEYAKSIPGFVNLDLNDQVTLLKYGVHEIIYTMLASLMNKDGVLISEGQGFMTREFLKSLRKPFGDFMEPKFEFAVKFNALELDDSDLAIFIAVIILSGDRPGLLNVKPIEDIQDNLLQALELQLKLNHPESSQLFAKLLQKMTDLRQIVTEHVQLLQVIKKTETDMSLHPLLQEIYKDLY
The experiment in a line: Stargazer thermostabilization assay. The format is binding. The conditions noted are these: 0.2 mg/ml PPARγ LBD, heated to 80° C.

The target in assay [3] is T3, PPARα LBD (Homo sapiens, UniProt Q07869).
T3 construct: His-tagged PPARα, δ and γ LBDs were expressed in bacteria, Ni-NTA purified; His; made in house; host or cells: bacteria (E. coli)
T3 sequence (Q07869 239-466 limits assumed): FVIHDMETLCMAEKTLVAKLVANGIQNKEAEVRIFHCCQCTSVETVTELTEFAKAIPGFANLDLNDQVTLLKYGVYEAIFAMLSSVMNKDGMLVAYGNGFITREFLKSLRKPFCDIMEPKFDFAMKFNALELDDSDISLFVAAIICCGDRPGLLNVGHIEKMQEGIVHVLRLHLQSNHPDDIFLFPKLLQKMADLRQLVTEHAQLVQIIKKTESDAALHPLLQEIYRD
Briefly: In vitro co-purification with His-tagged PPARα LBD, MS. The format is binding. Conditions: incubated with 10 μM idebenone. Here is the method:
To see if idebenone can bind to directly to other PPAR LBDs, His-tagged PPARα, δ and γ LBDs were expressed in bacteria, Ni-NTA purified and incubated with 10 μM idebenone. After several washes in a 10 kDa cut off Amicon centrifuge filter (Millipore), lipids were extracted and analyzed by MS.

Assay [4] deals with T4, affinity-tagged PPARγ expressed in zebrafish (Homo sapiens, UniProt P37231).
T4 construct: pLT PPARα (aa 178-468) and pLT PPAR γ (aa 188-477) lines; expressed in transfected cells; host or cells: transgenic zebrafish embryos (heat-induced ligand-trap line)
T4 sequence (P37231 188-477 isoform P37231-2): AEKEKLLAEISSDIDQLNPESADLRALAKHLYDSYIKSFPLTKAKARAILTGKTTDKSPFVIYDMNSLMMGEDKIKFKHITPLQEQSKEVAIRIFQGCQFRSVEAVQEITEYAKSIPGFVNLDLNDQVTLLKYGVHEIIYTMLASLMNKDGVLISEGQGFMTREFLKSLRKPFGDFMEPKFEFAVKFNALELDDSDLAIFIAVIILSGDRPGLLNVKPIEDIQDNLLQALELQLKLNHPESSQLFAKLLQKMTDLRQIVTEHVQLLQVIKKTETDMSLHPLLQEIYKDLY
The experiment in a line: Affinity purification of PPARγ from LT fish and LC-MRM of bound drugs. The format is binding. Conditions: 1 μM rosiglitazone or 4 μM idebenone; purification in 1M NaCl.
Method: Following purification, bound small molecules were extracted using 2:1 chloroform/methanol and subjected to LC-MRM (liquid chromatogaphy—multiple reaction monitoring) mass spectrometry to identify co-purifying small molecules.
1 dpf zebrafish embryos were heat induced for 1 hr in pre-heated embryo water 37° C. (+/− drugs). […] Purification steps were performed at 4° C. Frozen embryos were homogenized in lysis buffer (50 mM Hepes ph7.5, 1M NaCl, 0.1% Triton X-100, 1 mM DTT, 1 mM EDTA, 1 ppm BHT, Complete protease inhibitor cocktail tablet (Roche, 1 tablet/50 ml buffer)) at a ratio of 4 ml lysis buffer/gram embryos. After 20 min incubation on ice, the lysate was centrifuged at 14000×g for 15 mins. […] The beads were then transferred to a 2 ml-gravity disposable column and washed 3 times with 6 column of Last Wash Buffer (800 mM ammonium acetate pH7.5, 1 ppm BHT). The beads were then transferred to a glass vial and the samples prepared for mass spectrometry.
The chloroform phase was collected and dried under a stream of nitrogen gas. The dried residue was reconstituted in 10% acetonitrile prior to LC-MRM. […]
The purified PPARγ or control purifications were then extracted with 2:1 chlorofonailmethanol, and the solvent phase analyzed by mass spectrometry.

The target in assay [5] is T5, hPPARδ/β (Homo sapiens, UniProt Q03181).
T5 sequence (Q03181 143-441): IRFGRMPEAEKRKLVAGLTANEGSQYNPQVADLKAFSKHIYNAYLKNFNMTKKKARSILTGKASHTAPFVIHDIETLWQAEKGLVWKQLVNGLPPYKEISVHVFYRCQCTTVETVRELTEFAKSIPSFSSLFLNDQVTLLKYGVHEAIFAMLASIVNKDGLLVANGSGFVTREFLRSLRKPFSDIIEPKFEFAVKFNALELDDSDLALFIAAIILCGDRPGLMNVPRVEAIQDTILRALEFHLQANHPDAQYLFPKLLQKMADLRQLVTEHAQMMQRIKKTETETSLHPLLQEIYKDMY
The experiment in a line: HEK293 cell culture luciferase reporter assay, hPPARδ/β. Conditions: HEK293.

For `COC1=C(OC)C(=O)C(CCCCCCCCCCO)=C(C)C1=O` [Idebenone, 2-(10-hydroxydecyl)-5,6-dimethoxy-3-methyl-2,5-cyclohexadiene-1,4-dione], in assay [1], the “Response of PPARδ/β transgenic line” value is recorded as “no response”. Besides, the “Shift of thermal denaturation transition temperature” value in assay [2] is 5.5 °C. Besides, the “Binding to PPARα LBD (co-purification, MS)” value in assay [3] is reported as “strong binding”. The “Co-purification with PPARγ from LT fish (LC-MRM)” value in assay [4] is on record as “yielded idebenone in the affinity purification eluate; also recorded: co-purify with affinity-tagged PPARγ”. For the same molecule, the “Response of PPARδ/β in cultured cells” value in assay [5] is listed as “no response”.
